# Data from US20210205329A1 (The University of North Carolina at Chapel Hill, priority 2018, published 2021).
# Experiment: 3α,5α-THP radioimmunoassay of RAW264.7 cell culture media (conversion of pregnenolone)
# Format: in vitro ADME, mouse
# Experimental: 3α,5α-THP Radioimmunoassay (RIA), 3α,5α-THP concentrations in the RAW264.7 cell media were measured by radioimmunoassay as described elsewhere (VanDoren et al, 2000), modified for use with cell media (Cook et al, 2014), Briefly, 3α,5α-THP was extracted from ceil media three times with 3 ml of ethyl acetate and spiked with 1000 counts per minute of [^3H]3α,5α-THP for recovery. The extracts were purified using solid phase silica columns (Burdick and Jackson, Muskegon, Mich.) and used for the assay (run in duplicate) and for recovery measurement. Steroid levels in the samples were extrapolated from a concurrently run standard curve and corrected for their respective extraction efficiencies. The 3α,5α-THP antibody (1:500) was provided by the late Dr. Robert Purdy at Scripps Research Institute. […] The validity of the assay has been verified by gas chromatography mass spectrometry determinations (Porcu et al, 2010), 3α,5α-THP values are expressed as ng/ml of cell media.
# Since pregnenolone is a precursor for 3α,5α-THP, the possibility that pregnenolone may have been converted in the RAW264.7 cells was considered by analysis of 3α,5α-THP levels in the cell culture media at the time of cell harvest, 3α,5α-THP was detected at less than 0.69±0.11 nmol/L, indicative of less than 0.1% conversion of 1.0 μM pregnenolone.
compound,measurement,setting,value
CC(=O)[C@H]1CC[C@H]2[C@@H]3CC=C4C[C@@H](O)CC[C@]4(C)[C@H]3CC[C@]12C [pregnenolone],"conversion of pregnenolone to 3α,5α-THP","1.0 μM pregnenolone, RAW264.7 cells",less than 0.1%
same,"3α,5α-THP level in the cell culture media at the time of cell harvest",RAW264.7 cells treated with 1.0 μM pregnenolone,less than 0.69±0.11 nmol/L
